Values belong to the molecule of their own block, whether it stands above or below them.
Assays:
[1] = following intravenous administration; no reference given; cited from earlier work
[2] = Plasma pharmacokinetics of irinotecan and SN-38 with and without pimasertib; conditions: for Ratio of AUC(0–∞) test/reference / Ratio of Cmax test/reference: day 1 with pimasertib / day 15 without pimasertib
[3] = Single-dose plasma pharmacokinetics of pimasertib with and without FOLFIRI; assay type: in vivo, human; conditions: for Ratio of AUC(0–∞) test/reference / Ratio of Cmax test/reference / CL/f: median; for Ratio of AUC(0–∞) test/reference / Ratio of Cmax test/reference: day 1 with FOLFIRI / day 8 alone
[4] = Dose-limiting toxicities and MTD of pimasertib combined with FOLFIRI; assay type: in vivo, human
[5] = Treatment-emergent adverse events, FOLFIRI plus pimasertib; assay type: in vivo, human
KRAS mt mCRC = assay: Best overall response by RECIST v1.0, FOLFIRI plus pimasertib second-line; assay type: in vivo, human; conditions: 45 or 60 mg per day plus FOLFIRI
[6] = ref Awada et al, 2012, cited from earlier work
human liver microsomes = conditions: in vitro, ref Merck, data on file; cited from earlier work
[7] = 45 mg per day pimasertib cohort
[8] = median, irinotecan 180 mg m^−2 infusion, day 15, without pimasertib (reference)
[9] = median, irinotecan 180 mg m^−2 infusion, day 1, with pimasertib (test)

SMILES: O=c1[nH]cc(F)c(=O)[nH]1 [5-FU, 5-fluorouracil]
mean apparent terminal half-life [1]: ~0.267 h

reduction of Cmax in the presence of pimasertib [2, 7]: 2.7%
reduction of exposure (AUC0–∞) in the presence of pimasertib [2, 7]: 8.9%
AUC(0-inf) ([2]; human, in vivo, 180 mg m^−2, AUC(0–∞), median, irinotecan 180 mg m^−2 infusion, day 1, with pimasertib (test)): 10600 ng·h/mL
Cmax ([2]; human, in vivo, 180 mg m^−2, Cmax, median, irinotecan 180 mg m^−2 infusion, day 15, without pimasertib (reference)): 2120 ng/mL
Tmax ([2]; human, in vivo, 180 mg m^−2, Tmax, median, irinotecan 180 mg m^−2 infusion, day 1, with pimasertib (test)): 1.5 h
Ratio of AUC(0–∞) test/reference ([2]; median): 0.911
Ratio of Cmax test/reference ([2]; median): 0.973
Tmax [2, 8]: 1.54 h
SMILES: CCc1c2c(nc3ccc(OC(=O)N4CCC(N5CCCCC5)CC4)cc13)-c1cc3c(c(=O)n1C2)COC(=O)[C@]3(O)CC [Irinotecan, irinotecan, reference compound]

SMILES: CCc1c2c(nc3ccc(O)cc13)-c1cc3c(c(=O)n1C2)COC(=O)[C@]3(O)CC [SN-38]
increase in Cmax with coadministration of pimasertib [2, 7]: 11%
reduction of exposure (AUC0–∞) in the presence of pimasertib [2, 7]: 9%
Ratio of AUC(0–∞) test/reference ([2]; median): 0.91
Ratio of Cmax test/reference ([2]; median): 1.11
AUC(0–t) [2, 9]: 150 ng·h/mL
AUC(0–∞) [2, 9]: 198 ng·h/mL
Cmax [2, 9]: 20.4 ng/mL
T1/2 [2, 9]: 13.6 h
AUC(0–t) [2, 8]: 146 ng·h/mL
AUC(0–∞) [2, 8]: 206 ng·h/mL
Cmax [2, 8]: 15.1 ng/mL
T1/2 [2, 8]: 15.7 h
Tmax [2, 8]: 1.6 h

SMILES: O=C(NC[C@H](O)CO)c1ccncc1Nc1ccc(I)cc1F [pimasertib, Pimasertib]
reduction of exposure (AUC0–∞) in the presence of FOLFIRI ([3]; 45 mg per day cohort): 8.3%
reduction of maximum plasma concentration (Cmax) in the presence of FOLFIRI ([3]; 45 mg per day cohort): 16.3%
Ratio of AUC(0–∞) test/reference ([3]; 45 mg per day): 0.917
Ratio of Cmax test/reference ([3]; 45 mg per day): 0.837
Ratio of AUC(0–∞) test/reference ([3]; 60 mg per day): 0.825
Ratio of Cmax test/reference ([3]; 60 mg per day): 0.751
CL/f ([3]; single 45 mg dose, day 1, with FOLFIRI (test)): 38.7 L/h
CL/f ([3]; single 45 mg dose, day 8, alone (reference)): 34.2 L/h
CL/f ([3]; single 60 mg dose, day 1, with FOLFIRI (test)): 42.1 L/h
CL/f ([3]; single 60 mg dose, day 8, alone (reference)): 44.6 L/h
patients who experienced a DLT ([4]; DLT analysis set, 15 patients, both dose levels): three
DLTs ([4]; first three patients, 45 mg per day): no DLTs
Patients with ≥1 pimasertib-related TEAE (by worst grade) ([5]; 45 mg per day (n=10), grade 1/2): 5
Patients with ≥1 pimasertib-related TEAE (by worst grade) ([5]; 45 mg per day (n=10), grade 3): 5
Patients with ≥1 pimasertib-related TEAE (by worst grade) ([5]; 45 mg per day (n=10), grade 4): 0
incidence of grade ≥3 pimasertib-related TEAEs ([5]; 45 mg per day dose): 50.0%
Patients with ≥1 pimasertib-related TEAE (by worst grade) ([5]; 60 mg per day (n=6), grade 1/2): 2
Patients with ≥1 pimasertib-related TEAE (by worst grade) ([5]; 60 mg per day (n=6), grade 3): 2
Patients with ≥1 pimasertib-related TEAE (by worst grade) ([5]; 60 mg per day (n=6), grade 4): 2
incidence of grade ≥3 pimasertib-related TEAEs ([5]; 60 mg per day dose): 66.7%
Patients with ≥1 pimasertib-related TEAE (by worst grade) ([5]; Overall (n=16), grade 1/2): 7
Patients with ≥1 pimasertib-related TEAE (by worst grade) ([5]; Overall (n=16), grade 3): 7
Patients with ≥1 pimasertib-related TEAE (by worst grade) ([5]; Overall (n=16), grade 4): 2
time to resolution of ocular AEs from day of onset ([5]; all events except SRD in two patients): 3 to 139 days
Asthenia, pimasertib-related TEAE, patients ([5]; overall n=16): 37.5%
Diarrhoea, pimasertib-related TEAE, patients ([5]; overall n=16): 62.5%
Serous retinal detachment (SRD), pimasertib-related TEAE, patients ([5]; overall n=16): 37.5%
Skin/rash, pimasertib-related TEAE, patients ([5]; overall n=16): 50%
patients with at least one ocular event during trial treatment ([5]; overall n=16): 43.8%
patients with skin/rash events ([5]; overall n=16): 56.3%
stable disease maintained for at least 12 weeks, share of the nine SD patients (KRAS mt mCRC): 66.7%
partial response as best overall response, patients (KRAS mt mCRC; efficacy analysis set n=15): 13.3%
progressive disease as best overall response, patients (KRAS mt mCRC; efficacy analysis set n=15): 20.0%
stable disease as best overall response, patients (KRAS mt mCRC; efficacy analysis set n=15): 60.0%
recommended single-agent dose for phase II trials ([6]; administered continuously): 60 mg twice-daily
dose-limiting toxicities ([6]; single-agent phase I dose-escalation trial): skin rash, acneiform dermatitis, ocular events and stomatitis
effect on 5-FU metabolism (human liver microsomes): does not alter 5-FU metabolism

— PMC4580393 (British Journal of Cancer, 2015)
